# Experimental data taken from patent publication US20260167673A1, “NOVEL POLYPEPTIDE, POLYPEPTIDE DERIVATIVE AND USE THEREOF” (NANJING ANJI BIOTECHNOLOGY CO., LTD., priority 2023, published 2026).
# Marks after values point to notes of the source that are not given here. Where no end group is shown, it is not given here.
# Columns and labels:
# [1] = system: human giant cell lung cancer cells 95-D; assay: CCK8 proliferation inhibition, 95-D; format: cell-based; conditions: 50 μM, 48 h
# Procedure: (§1) Incubation was continued for 4 h in a cell incubator, an absorbance was measured at 450 nm, and a proliferation inhibition was calculated. Data was presented as mean±SD, and GraphPad Prism 5.0 statistical software was used. A t-test was used for comparison between two groups, while One-way Anova (Dunnett) was used for comparison among a plurality of groups.
# [2] = system: human lung adenocarcinoma cells SPC-A1; assay: CCK8 proliferation inhibition, SPC-A1; format: cell-based; conditions: SPC-A1, 50 μM, 48 h
# Procedure: as §1
# [3] = system: human liver cancer cells HCCLM3; assay: CCK8 proliferation inhibition, HCCLM3; format: cell-based; conditions: HCCLM3, 50 μM, 48 h
# Procedure: as §1
# [4] = system: human kidney cancer cells Ketr-3; assay: CCK8 proliferation inhibition, Ketr-3; format: cell-based; conditions: Ketr-3, 50 μM, 48 h
# Procedure: as §1
# [5] = system: human breast cancer cells MDA-MB-231; assay: CCK8 proliferation inhibition, MDA-MB-231; format: cell-based; conditions: MDA-MB-231, 50 μM, 48 h
# Procedure: as §1
# [6] = system: human cervical cancer epithelial cells CaSki; assay: CCK8 proliferation inhibition, CaSki; format: cell-based; conditions: 50 μM, 48 h
# Procedure: as §1
# [7] = system: human cervical cancer cells Hela; assay: CCK8 proliferation inhibition, Hela; format: cell-based; conditions: 50 μM, 48 h
# Procedure: as §1
# [8] = system: human endometrial cancer cells RL-952; assay: CCK8 proliferation inhibition, RL-952; format: cell-based; conditions: RL-952, 50 μM, 48 h
# Procedure: as §1
# [9] = system: human colon cancer cells SW480; assay: CCK8 proliferation inhibition, SW480; format: cell-based; conditions: SW480, 50 μM, 48 h
# Procedure: as §1
# [10] = system: human bladder cancer cells EJ; assay: CCK8 proliferation inhibition, EJ; format: cell-based; conditions: 50 μM, 48 h
# Procedure: as §1
# [11] = system: human prostate cancer cells 22RV1; assay: CCK8 proliferation inhibition, 22RV1; format: cell-based; conditions: 22RV1, 50 μM, 48 h
# Procedure: as §1
# [12] = system: human prostate cancer cells PC-3; assay: CCK8 proliferation inhibition, PC-3; format: cell-based; conditions: PC-3, 50 μM, 48 h
# Procedure: as §1
# [13] = system: human diffuse large B-cell lymphoma (DLBCL) cells WSU-DLCL2; assay: CCK8 proliferation inhibition, WSU-DLCL2; format: cell-based; conditions: WSU-DLCL2, 50 μM, 48 h
# Procedure: as §1
# [14] = system: human acute myeloid leukemia cells KG-1; assay: CCK8 proliferation inhibition, KG-1; format: cell-based; conditions: KG-1, 50 μM, 48 h
# Procedure: as §1
# [15] = system: human promyelocytic leukemia cells HL60; assay: CCK8 proliferation inhibition, HL60; format: cell-based; conditions: HL60, 50 μM, 48 h
# Procedure: as §1
# [16] = system: human melanoma A375 cells; assay: Transwell metastasis inhibition, A375; format: cell-based; conditions: 48 h
# Procedure: (§2) Melanoma, cervical cancer, ovarian cancer, liver cancer, and lung cancer cells were seeded into transwell chambers, with 100 μL per well. Different doses of the HMMW micropeptide and the novel polypeptide HMMW15-51 were added to each chamber as a treatment group, while no drug was added to a blank group. Then, 0.6 mL of a complete culture medium containing 10% FBS was added to the lower chambers of the transwell to stimulate cell metastasis, and the cells were cultured at 5% CO2 and 37° C. for 48 h. The culture solution was discarded from the wells. The cells were fixed with methanol at room temperature for 30 min, stained with 0.1% crystal violet at room temperature for 10 min, and rinsed with clean water. The upper layer nonmetastatic cells were wiped off with a cotton swab. The cells were observed under a microscope, and four fields of view were selected to take photos and count the cells. A metastasis inhibition (MI) was calculated according to a formula: […]
# (§3) where Ntest represents the number of cell metastases in the treatment group, and Ncontrol represents the number of cell metastases in the blank control group.
# (§4) Data was presented as mean±SD, and GraphPad Prism 5.0 statistical software was used.
# [17] = system: human lung cancer A549 cells; assay: Transwell metastasis inhibition, A549; format: cell-based; conditions: 48 h
# Procedure: as §2, §3, §4
# [18] = system: subcutaneous transplanted tumor model of tongue squamous cell carcinoma cells CAL27; assay: CAL27 subcutaneous transplanted tumor model (Example 7); format: in vivo, BALB/c nude mice; conditions: 2.7 μM/kg, FIG. 10
# Procedure: (1) A large number of human tongue squamous cell carcinoma CAL27 cells were cultured and digested with a 0.25% trypsin solution. After digestion was terminated, a cell suspension was centrifuged at 1000 rpm for 5 min, and the cells were resuspended in a serum-free DMEM culture medium and counted. The cell concentration was adjusted to 5×10^7 cells/mL.
# (2) BALB/c nude mice (4-6 week old, female, weighing 14-16 g, adaptively fed in an SPF animal feeding room for 1 week) were inoculated with 100 μL of cell suspensions of corresponding groups under the left axilla, with an injection volume of 5×10^6 cells/mouse;
# (3) After inoculation, the tumor growth at the inoculation sites of the nude mice was closely observed. On the 7th day after inoculation, white nodules appeared at the inoculation sites and could move subcutaneously upon touch. As the tumor tissues grew, hard tumor blocks gradually formed at the inoculation sites, and the average volume of the tumor tissues reached 80 mm^3 in about 14 days. The BALB/c nude mice were randomly divided into 3 groups (a normal saline group served as a blank control, and the dose of the micropeptide HMMW and the novel polypeptide HMMW15-51 was 2.7 μM/kg), with 10 mice in the blank group and 6 mice in each other group. […]
# (4) The volume of the transplanted tumor was measured and recorded every three days. […]
sequence,measurement,setting,value
MERAGVPGFSPRRSSVEAKMQSTSCSVRKSSTVTAWPAVVLLLSWGQRRGG [HMMW],Inhibition (%),[1],59.757 ± 5.365 %
same,OD,[1],0.442 ± 0.059
same,Inhibition (%),[2],49.128 ± 3.053 %
same,OD,[2],0.525 ± 0.032
same,Inhibition (%),[3],53.926 ± 7.634 %
same,OD,[3],0.460 ± 0.076
same,Inhibition (%),[4],48.708 ± 4.852 %
same,OD,[4],0.476 ± 0.045
same,Inhibition (%),[5],65.216 ± 4.512 %
same,OD,[5],0.429 ± 0.056
same,Inhibition (%),[6],53.329 ± 3.884 %
same,OD,[6],0.458 ± 0.038
same,Inhibition (%),[7],52.644 ± 4.018 %
same,OD,[7],0.493 ± 0.049
same,Inhibition (%),[8],50.988 ± 3.897 %
same,OD,[8],0.422 ± 0.034
same,Inhibition (%),[9],49.114 ± 2.626 %
same,OD,[9],0.479 ± 0.025
same,Inhibition (%),[10],47.820 ± 1.486 %
same,OD,[10],0.638 ± 0.018
same,Inhibition (%),[11],50.463 ± 1.693 %
same,OD,[11],0.552 ± 0.019
same,Inhibition (%),[12],50.341 ± 3.864 %
same,OD,[12],0.509 ± 0.040
same,Inhibition (%),[13],44.365 ± 2.462 %
same,OD,[13],0.731 ± 0.032
same,Inhibition (%),[14],37.600 ± 5.989 %
same,OD,[14],0.725 ± 0.070
same,Inhibition (%),[15],47.264 ± 5.692 %
same,OD,[15],0.578 ± 0.062
same,Number of cell metastases,"[16]; A375, 50 μmol/L",371 ± 13.00
same,Inhibition (%),"[16]; A375 metastasis, 50 μmol/L",37.13*** %
same,Number of cell metastases,"[17]; A549, 50 μmol/L",33 ± 20.50
same,Inhibition (%),"[17]; A549 metastasis, 50 μmol/L",94.57*** %
same,in vivo tumorigenicity of CAL27 cells compared with normal saline control,[18],significantly inhibit
